Results reported in patent US9617256B2 (priority 2007, dated 2017).
≈ marks a conversion by molar mass, not a printed value. Like-named read-outs stand apart in the source and are kept apart here.

Tests used:
[1] = tested on: AECO001 (ATCC25922); experiment: MIC broth microdilution, AECO001; type: cell-based, E. coli; settings: for MIC: Escherichia coli; for Ratio of MICs on AECO001 [Cpd (A = —CHCH3NH2)/Cpd (A = —C(CH3)2NH2)]: MIC of paired compound with A = —CHCH3NH2 divided by MIC of compound with A = —C(CH3)2NH2, n=2 data, pairs identical except for the A moiety
Protocol: (§1) Bacterial isolates were cultivated from −70° C. frozen stocks by overnight passages at 35° C. in ambient air on Mueller-Hinton agar (Beckton Dickinson, Franklin Lakes, N.J.). Clinical isolates tested were obtained from various geographically diverse hospitals in the US and abroad (Focus Diagnostics, Herndon, Va. and JMI, North Liberty, Iowa). Quality control strains were from the American Type Culture Collection (ATCC; Rockville, Md.). Additional primary panel strains were generated using standard molecular biology techniques.
(§2) Minimum Inhibitory Concentrations (MICs) were determined by the broth microdilution method in accordance with the Clinical and Laboratory Standards Institute (CLSI) guidelines. In brief, organism suspensions were adjusted to a 0.5 McFarland standard to yield a final inoculum between 3×10^5 and 7×10^5 colony-forming units (CFU)/mL. Drug dilutions and inocula were made in sterile, cation adjusted Mueller-Hinton Broth (Beckton Dickinson). An inoculum volume of 100 μL was added to wells containing 100 μL of broth with 2-fold serial dilutions of drug. All inoculated microdilution trays were incubated in ambient air at 35° C. for 18-24 hours. […] Performance of the assay was monitored by the use of laboratory quality-control strains and levofloxacin, a compound with a defined MIC spectrum, in accordance with CLSI guidelines.
(§3) *AECO001 is ATCC25922, AECO063 is ATCC25922 bearing an acrAB mutation, APAE001 is ATCC27853, APAE006 is a strain of P. aeruginosa in which all efflux pumps are inactivated, APAE006+PMBN indicates MICs with the indicated strain in the presence of 8 micrograms per milliliter of polymyxin B nonapeptide, AABA1060 is a clinical isolate of Acinetobacter baumannii, ASAU001 is a laboratory strain of S. aureus (ATCC29213).

[2] = tested on: AECO063 (ATCC25922 bearing an acrAB mutation); experiment: microbe, parasite or virus in culture; type: cell-based, E. coli; settings: Escherichia coli, ATCC25922, read-out: MIC AECO063
Protocol: as §1, §2, §3

[3] = tested on: APAE001 (ATCC27853); experiment: MIC broth microdilution, APAE001; type: cell-based, P. aeruginosa; settings: Pseudomonas aeruginosa, ATCC27853, read-out: MIC APAE001, APAE001 (ATCC27853)
Protocol: as §1, §2, §3

[4] = tested on: APAE006 (strain of P. aeruginosa in which all efflux pumps are inactivated); experiment: microbe, parasite or virus in culture; type: cell-based; settings: Pseudomonas aeruginosa, read-out: MIC APAE006, APAE006, all efflux pumps inactivated
Protocol: as §1, §2, §3

[5] = tested on: APAE006 in the presence of 8 micrograms per milliliter of polymyxin B nonapeptide; type: cell-based, P. aeruginosa; settings: APAE006 with 8 micrograms per milliliter polymyxin B nonapeptide
Protocol: as §1, §2, §3

[6] = tested on: AABA1060 (clinical isolate of Acinetobacter baumannii); experiment: MIC broth microdilution, AABA1060; type: cell-based; settings: Acinetobacter baumannii, read-out: MIC AABA1060
Protocol: as §1, §2, §3

[7] = tested on: ASAU001 (laboratory strain of S. aureus, ATCC29213); experiment: MIC broth microdilution, ASAU001; type: cell-based; settings: Staphylococcus aureus, ATCC29213, read-out: MIC ASAU001
Protocol: as §1, §2, §3

[8] = ATCC25922, read-out: MIC AECO001
[9] = ATCC25922, read-out: MIC AECO001 HSA AGP

| SMILES | MIC [1, 8] [µg/mL] | MIC [1, 9] [µg/mL] | MIC [2] [µg/mL] | MIC [3] [µg/mL] | MIC [4] [µg/mL] | MIC APAE006 + PMBN [5] | MIC [6] [µg/mL] | MIC [7] [µg/mL] | Ratio of MICs on AECO001 [Cpd (A = —CHCH3NH2)/Cpd (A = —C(CH3)2NH2)] [1] |
| --- | --- | --- | --- | --- | --- | --- | --- | --- | --- |
| CC(C)CCC#CC#Cc1ccc(C(=O)N[C@H](C(=O)NO)C(C)(C)O)cc1 [Example 91-18] | < 2 | < 2 | < 2 | 2 to 16 (≈ 5.4 to 43.2 µM) | 2 to 16 (≈ 5.4 to 43.2 µM) | A (MIC's of 2.0 μg/mL or less = A) | 2 to 16 (≈ 5.4 to 43.2 µM) | 16 to 64 (≈ 43.2 to 173 µM) | – |
| C[C@@H](N)[C@H](NC(=O)c1ccc(C#CC#CCCCO)cc1)C(=O)NO [Example 137-25] | 16 to 64 (≈ 46.6 to 186 µM) | 16 to 64 (≈ 46.6 to 186 µM) | 2 to 16 (≈ 5.82 to 46.6 µM) | 16 to 64 (≈ 46.6 to 186 µM) | < 2 | A (MIC's of 2.0 μg/mL or less = A) | 16 to 64 (≈ 46.6 to 186 µM) | 16 to 64 (≈ 46.6 to 186 µM) | – |
| CC(C)(N)[C@H](NC(=O)c1ccc(C#CC#Cc2cccnc2)cc1)C(=O)NO [Example 88-8] | < 2 | < 2 | < 2 | < 2 | < 2 | A (MIC's of 2.0 μg/mL or less = A) | 2 to 16 (≈ 5.31 to 42.5 µM) | 16 to 64 (≈ 42.5 to 170 µM) | 5.1 |
| C[C@H](C#CC#Cc1ccc(C(=O)N[C@H](C(=O)NO)[C@@H](C)N)cc1)N1CCOCC1 [Example 92-1, N-((2S,3R)-3-amino-1-(hydroxyamino)-1-oxobutan-2-yl)-4-((R)-5-morpholinohexa-1,3-diynyl)benzamide] | 2 to 16 (≈ 5.02 to 40.2 µM) | 16 to 64 (≈ 40.2 to 161 µM) | 2 to 16 (≈ 5.02 to 40.2 µM) | 2 to 16 (≈ 5.02 to 40.2 µM) | < 2 | A (MIC's of 2.0 μg/mL or less = A) | 16 to 64 (≈ 40.2 to 161 µM) | 16 to 64 (≈ 40.2 to 161 µM) | – |
| CC(C)(N)[C@H](NC(=O)c1ccc(C#CC2CC2c2ccccc2)cc1)C(=O)NO (stereo partly drawn) [Example 134-1, N—((S)-2-Amino-1-hydroxycarbamoyl-2-methyl-propyl)-4-(2-phenyl-cyclopropylethynyl)-benzamide] | 2 to 16 (≈ 5.11 to 40.9 µM) | 2 to 16 (≈ 5.11 to 40.9 µM) | < 2 | 2 to 16 (≈ 5.11 to 40.9 µM) | < 2 | A (MIC's of 2.0 μg/mL or less = A) | < 2 | 16 to 64 (≈ 40.9 to 163 µM) | – |
| CC(C)(N)[C@H](NC(=O)c1ccc(C#Cc2ccccc2)cc1)C(=O)NO [Example 133-6] | < 2 | < 2 | < 2 | < 2 | < 2 | A (MIC's of 2.0 μg/mL or less = A) | < 2 | 2 to 16 (≈ 5.69 to 45.5 µM) | 20.8 |
| O=C(NC(C(=O)NO)C1(O)CC1)c1ccc(C#CC#CC2CC2)cc1 (stereo not shown) [Example 94-1, 4-(cyclopropylbuta-1,3-diynyl)-N-(2-(hydroxyamino)-1-(1-hydroxycyclopropyl)-2-oxoethyl)benzamide] | < 2 | 2 to 16 (≈ 5.91 to 47.3 µM) | < 2 | < 2 | < 2 | A (MIC's of 2.0 μg/mL or less = A) | 2 to 16 (≈ 5.91 to 47.3 µM) | 16 to 64 (≈ 47.3 to 189 µM) | – |
| CC(C)(N)[C@H](NC(=O)c1ccc(C#Cc2ccc(CNCC(F)F)cc2)cc1)C(=O)NO [Example 122-3] | < 2 | < 2 | < 2 | < 2 | < 2 | A (MIC's of 2.0 μg/mL or less = A) | < 2 | 16 to 64 (≈ 36 to 144 µM) | – |
| C[C@@H](NC(=O)CNC1CC1)[C@H](NC(=O)c1ccc(C#Cc2ccccc2)cc1)C(=O)NO [Example 132-2] | < 2 | 2 to 16 (≈ 4.6 to 36.8 µM) | < 2 | 2 to 16 (≈ 4.6 to 36.8 µM) | < 2 | A (MIC's of 2.0 μg/mL or less = A) | 16 to 64 (≈ 36.8 to 147 µM) | 16 to 64 (≈ 36.8 to 147 µM) | – |
| CC(C)(N)[C@H](NC(=O)c1ccc(C#CC#Cc2ccc(CN3CCS(=O)(=O)CC3)cc2)cc1)C(=O)NO [Example 86-7] | < 2 | 2 to 16 (≈ 3.83 to 30.6 µM) | < 2 | 2 to 16 (≈ 3.83 to 30.6 µM) | < 2 | A (MIC's of 2.0 μg/mL or less = A) | < 2 | 16 to 64 (≈ 30.6 to 122 µM) | – |
